# Test results reported in patent US20240139210A1, “TREATMENT OF NF-KB-MEDIATED DISEASE” (ReveraGen BioPharma, Inc., priority 2020, published 2024).
# Experiments:
# participants with DMD = assay: VBP15-LTE prespecified safety evaluation: height percentile for age and BMI; type: in vivo, human
# Method: Standing height and weight were assessed at each study visit. Height z-score, body mass index (BMI; kg/m 2), and BMI z-score were calculated centrally. AE reporting was done per protocol in the vamorolone trials.
# Participants in the corticosteroid-treated CINRG DNHS group were treated for at least 18 months, but the total duration, dose, and regimens varied.
# Statistical analyses were done on paired longitudinal outcome data using an analysis of covariance (ANCOVA) approach with change from baseline (VBP15-002) to month 18 (midpoint of VBP15-LTE). Baseline response and age were included as covariates. For the vamorolone-treated participants, age was calculated as (date of informed consent minus birthdate)/365.25. For the DNHS participants, age was calculated as (date of baseline visit used minus birthdate)/365.25. The baseline visit for a DNHS participant was the first visit. […] Timed function tests were analyzed as velocity scores to limit the impact of participants who could not perform the test (velocity=0). Velocity measures are variance-stabilizing transformations, suppressing extreme raw outliers from raw values in seconds; these help with distributional assumptions of the statistical models/tests used. Raw data (seconds) are also reported. Velocity scores for TTSTAND (event/second), TTRW (meters/second), and TTCLIMB (event/second) were inputted as 0 at the first response missing due to inability to perform the test. All other data were observed values only, without imputation. No adjustments for multiplicity on inferential statistics were specified in the iSAP.
# [1] = tested on: ambulant boys aged 4 to <7 years with DMD; assay: VBP15-004 growth (height Z scores); type: in vivo, human
# Text: The second period of 24 weeks, where all participants receive vamorolone treatment on either of the two dose levels, will continue to capture additional longer-term safety and tolerability data.
# [2] = 2.0 or 6.0 mg/kg/day for 18 months (groups C+D)
# [3] = vamorolone 18 months versus corticosteroid-naïve DNHS
structure (smiles),measurement,setting,value
"C[C@@H]1C[C@H]2[C@@H]3CCC4=CC(=O)C=C[C@]4(C)C3=CC[C@]2(C)[C@@]1(O)C(=O)CO [Vamorolone, 17α,21-dihydroxy-16α-methylpregna-1,4,9(11)-triene-3,20-dione]","Mean BMI z-score, 18-month value (SD)",participants with DMD; [2],1.46 (0.62)
same,"Mean BMI z-score, change from baseline (SD)",participants with DMD; [2],0.411 (0.615)
same,"Mean height percentile for age, 18-month value (SD)",participants with DMD; [2],35.24 percentile
same,"Mean BMI z-score, change from baseline (SD)","participants with DMD; 2.0 or 6.0 mg/kg/day for 18 months (groups C+D), listed as vamorolone",0.41
same,LS Mean change in height percentiles for age,"participants with DMD; DMD children, N 22, 18 months treatment",+6.9
same,BMI change from baseline to 18 months of treatment,"participants with DMD; original dose group B (0.75 mg/kg/day, escalated)",0.5 kg/m 2
same,BMI change from baseline to 18 months of treatment,participants with DMD; original dose group C (2.0 mg/kg/day),1.11 kg/m 2
same,BMI change from baseline to 18 months of treatment,participants with DMD; original dose group D (6.0 mg/kg/day),2.55 kg/m 2
same,"Mean BMI z-score, LS mean difference (SE), ANCOVA",participants with DMD; [3],0.899 (0.204)
same,"Mean height percentile for age, LS mean difference (SE), ANCOVA",participants with DMD; [3],6.72 (3.48) percentile
same,change in height Z scores from baseline to Week 24,[1]; vamorolone 2.0 mg/kg/day,overall stable height change Z scores
same,change in height Z scores from baseline to Week 24,[1]; vamorolone 6.0 mg/kg/day,increased growth rate
